According to the supplement of paper PMC10307832:

compound: CC(C)(C)c1cc(NC(=O)Nc2ccc(-c3cn4c(n3)sc3cc(OCCN5CCOCC5)ccc34)cc2)no1 [Quizartinib] + Cc1cc(Nc2cc(N3CCN(C)CC3)nc(Sc3ccc(NC(=O)C4CC4)cc3)n2)n[nH]1 [Tozasertib] (partner 0.1 µM); assay: relative viability (nuclei count vs DMSO), 5 days (fraction); higher = more cells survive; conditions: first compound 0.003162 µM
How it was run: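 Lung cancer cell lines in 1536-well plates got either a single drug or a fixed anchor-drug dose together with five library-drug doses (not always all listed) in √10 steps, by pin tool, on the day after seeding. Nuclei were counted after 5 days, and relative viability is the treated-to-vehicle ratio of nuclei counts. Values are medians of duplicate plates.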

Cell Line	relative viability
NCI-H1755	0.536
NCI-H2085	0.752
NCI-H460	0.401

same assay, conditions: first compound 0.01 µM

Cell Line	relative viability
NCI-H2347	0.531
LCLC-103H	0.441
ABC-1	0.172
NCI-H1734	0.267
HCC-78	0.365
HCC-15	0.602
HARA	0.102
NCI-H1975	0.488
NCI-H1944	0.267
NCI-H2126	0.831
EMC-BAC-2	0.281
NCI-H2170	0.853
NCI-H358	0.115
CAL-12T	0.315
LK-2	0.145
HOP-62	0.416
PC-14	0.584

Cell Line	relative viability
NCI-H1993	0.594
NCI-H2405	0.726
NCI-H3122	0.483
A-427	0.191
LOU-NH91	0.462
NCI-H596	0.964
NCI-H1666	0.612
NCI-H23	0.405
NCI-H838	0.3
NCI-H322M	0.505
NCI-H1793	0.291
NCI-H441	0.586
NCI-H727	0.557
201T	0.995
NCI-H1755	0.569
NCI-H2085	0.816
NCI-H460	0.394

same assay, conditions: first compound 0.03162 µM

Cell Line	relative viability
NCI-H2347	0.511
LCLC-103H	0.491
ABC-1	0.205
NCI-H1734	0.274
HCC-78	0.368
HCC-15	0.29
HARA	0.0944
NCI-H1975	0.372
NCI-H1944	0.263
NCI-H2170	0.749
NCI-H358	0.102
CAL-12T	0.234
LK-2	0.17
HOP-62	0.352
PC-14	0.556
NCI-H1993	0.622
NCI-H2405	0.738
A-427	0.204
LOU-NH91	0.649
NCI-H596	0.803
NCI-H1666	0.462
NCI-H23	0.249
NCI-H838	0.276
NCI-H322M	0.511
NCI-H1793	0.214
NCI-H727	0.648
201T	0.887
NCI-H1755	0.626
NCI-H2085	0.614
NCI-H460	0.142

same assay, conditions: first compound 0.1 µM

Cell Line	relative viability
NCI-H2347	0.521
LCLC-103H	0.522
ABC-1	0.183
NCI-H1734	0.271
HCC-78	0.384
HCC-15	0.2
HARA	0.122
NCI-H1975	0.16
NCI-H1944	0.278
NCI-H2126	0.846
EMC-BAC-2	0.282
